The values that follow come from patent US10166199B2, “Transdermal patch comprising a ropivacaine formulation” (BUZZZ PHARMACEUTICALS LIMITED, priority 2013, dated 2019).

Read-outs that look alike come from different tables or passages of the source.

A short description of data set [1]: Approximate ropivacaine solubility in excipients, assessed visually. Type of data set: physicochemical. The method, then:
Approximate solubilities were assessed visually by gradual addition of ropivacaine to a known volume of excipient at room temperature until saturation was observed.
(§1) Further excipients were assessed for ropivacaine solubility and compatibility with Duro-Tak® adhesive 87-900A. Adhesive compatibility was assessed by mixing ropivacaine (4% (w/w)) and excipient (5% (w/w)) with Duro-Tak® 87-900A.

Data set [2] can be described thus: Excipient compatibility with Duro-Tak 87-900A adhesive. Type of data set: physicochemical. Particulars: ropivacaine 4% (w/w) and excipient 5% (w/w) in Duro-Tak 87-900A; miscible, no precipitate after 72 hours. The procedure: as §1
For data set [3] the following is noted: local anaesthetic during cataract surgery, cited from earlier work.
[4] abbreviates: solubility of ropivacaine in the named excipient, gradual addition at room temperature, visual.

As to `CCOCCOCCO` [Transcutol P, ethoxy diglycol], the “% Solubility (ropivacaine in candidate excipient)” value (shortened to “% Solubility”) in data set [1] (setting [4]) is given as 4.1-4.6 % w/v. The “900A Compatible” value in data set [2] is reported as “yes”.
For `CO[C@H]1CO[C@H]2[C@@H]1OC[C@H]2OC` [DMI, dimethylisosorbide], the “% Solubility” value in data set [1] (setting [4]) is on record as 2.8-3.6 % w/v.
`CCCCCCCC/C=C\CCCCCCCC(=O)OCC(O)CO` (stereo not shown) [Capmul-GMO-50, glycerol monooleate]: the “900A Compatible” value in data set [2] is on record as “no”.
For the molecule `CCCN1CCCC[C@H]1C(=O)Nc1c(C)cccc1C` [ropivacaine, (2S)—N-(2,6-dimethylphenyl)-1-propyl-2-piperidinecarboxamide], the “potency relative to lidocaine” value in data set [3] (dose-for-dose) is listed as “as much as four times as potent as lidocaine”. The “half life relative to lidocaine” value in data set [3] is listed as “longer half life”.
As to sorbitan monooleate [Span 80], the “900A Compatible” value in data set [2] is given as “no”.
“propylene glycol dicaprylate/dicaprate [Labrafac PG]”: the “% Solubility” value in data set [1] was 1.3-1.8 % w/v.
sorbitan trioleate [Span 85]: the “900A Compatible” value in data set [2] is recorded as “yes”.
Turning to “apricot kernel oil PEG-6 esters [Labrafil M 1944 CS]”, the “% Solubility” value in data set [1] was 1.2-2.1 % w/v.
